Experimental data published in ChEMBL document CHEMBL1201862, “PubChem BioAssay data set” (2004).
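48-hour exposure; five concentrations; linearly interpolated endpoints. The concentration for 50% growth inhibition is given as GI50.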 The source made the active and inactive calls. Rule as the data show it: active = GI50 up to about 1.1 µM and inactive = higher.

Assays:
Test in all cases: NCI anticancer screen, dose series, 48 h
ACHN = test system: ACHN
CCRF-CEM = test system: CCRF-CEM
COLO 205 = test system: COLO 205
DLD-1 = test system: DLD-1
DMS-114 = test system: DMS-114
DMS-273 = test system: DMS-273
EKVX = test system: EKVX
HCC 2998 = test system: HCC 2998
HCT-116 = test system: HCT-116
HCT-15 = test system: HCT-15
HL-60 = test system: HL-60
HOP-62 = test system: HOP-62
HOP-92 = test system: HOP-92
HT-29 = test system: HT-29
IGROV-1 = test system: IGROV-1
K562 = test system: K562
KM-20L2 = test system: KM-20L2
KM12 = test system: KM12
LOX IMVI = test system: LOX IMVI
LXFL 529 = test system: LXFL 529
M14 = test system: M14
M19-MEL = test system: M19-MEL
MOLT-4 = test system: MOLT-4
Malme-3M = test system: Malme-3M
NCI-H226 = test system: NCI-H226
NCI-H23 = test system: NCI-H23
NCI-H460 = test system: NCI-H460
OVCAR-3 = test system: OVCAR-3
OVCAR-5 = test system: OVCAR-5
OVCAR-8 = test system: OVCAR-8
RPMI-8226 = test system: RPMI-8226
RXF 393 = test system: RXF 393
SF-268 = test system: SF-268
SF-295 = test system: SF-295
SK-MEL-28 = test system: SK-MEL-28
SK-MEL-2 = test system: SK-MEL-2
SK-MEL-5 = test system: SK-MEL-5
SK-OV-3 = test system: SK-OV-3
SN12C = test system: SN12C
SR = test system: SR
SW-620 = test system: SW-620
TK-10 = test system: TK-10
U-251 = test system: U-251
UACC-257 = test system: UACC-257
UACC-62 = test system: UACC-62
UO-31 = test system: UO-31
786-0 = test system: 786-0
A498 = test system: A498
A549 = test system: A549
CAKI-1 = test system: CAKI-1
HOP-18 = test system: HOP-18
NCI-H522 = test system: NCI-H522
OVCAR-4 = test system: OVCAR-4
SF-539 = test system: SF-539
SNB-19 = test system: SNB-19
SNB-75 = test system: SNB-75
SNB-78 = test system: SNB-78
BT-549 = test system: BT-549
DU-145 = test system: DU-145
Hs-578T = test system: Hs-578T
MCF7 = test system: MCF7
MDA-MB-231 = test system: MDA-MB-231
MDA-MB-435 = test system: MDA-MB-435
MDA-N = test system: MDA-N
NCI/ADR-RES = test system: NCI/ADR-RES
PC-3 = test system: PC-3
T47D = test system: T47D

In the case of `Nc1c(-c2ccccc2[N+](=O)[O-])nc2ccccn12`, the GI50 (ACHN) is reported as > 100 µM (inactive), the GI50 (CCRF-CEM) is reported as > 100 µM (inactive) and the GI50 (COLO 205) is reported as > 100 µM (inactive). For the same molecule, the GI50 (DLD-1) was > 100 µM (inactive), the GI50 (DMS-114) was > 100 µM (inactive) and the GI50 (DMS-273) was > 100 µM (inactive). The GI50 (EKVX) was > 100 µM (inactive), the GI50 (HCC 2998) was > 100 µM (inactive) and the GI50 (HCT-116) was > 100 µM (inactive). For the same molecule, the GI50 (HCT-15) was > 100 µM, the GI50 (HL-60) was > 100 µM (inactive) and the GI50 (HOP-62) was > 100 µM (inactive). The GI50 (HOP-92) was > 100 µM (inactive), the GI50 (HT-29) was > 100 µM (inactive) and the GI50 (IGROV-1) was > 100 µM (inactive). The GI50 (K562) was > 100 µM (inactive), the GI50 (KM-20L2) was > 100 µM (inactive) and the GI50 (KM12) was > 100 µM (inactive). For the same molecule, the GI50 (LOX IMVI) was > 100 µM (inactive), the GI50 (LXFL 529) was > 100 µM (inactive) and the GI50 (M14) was > 100 µM (inactive). For the same molecule, the GI50 (M19-MEL) was > 100 µM (inactive), the GI50 (MOLT-4) was > 100 µM (inactive) and the GI50 (Malme-3M) was > 100 µM (inactive). The GI50 (NCI-H226) was > 100 µM (inactive), the GI50 (NCI-H23) was > 100 µM (inactive) and the GI50 (NCI-H460) was > 100 µM (inactive). For the same molecule, the GI50 (OVCAR-3) was > 100 µM (inactive), the GI50 (OVCAR-5) was > 100 µM (inactive) and the GI50 (OVCAR-8) was > 100 µM (inactive). The GI50 (RPMI-8226) was > 100 µM (inactive), the GI50 (RXF 393) was > 100 µM (inactive) and the GI50 (SF-268) was > 100 µM (inactive). For the same molecule, the GI50 (SF-295) was > 100 µM (inactive), the GI50 (SK-MEL-28) was > 100 µM (inactive) and the GI50 (SK-MEL-2) was > 100 µM (inactive). The GI50 (SK-MEL-5) was > 100 µM (inactive), the GI50 (SK-OV-3) was > 100 µM (inactive) and the GI50 (SN12C) was > 100 µM (inactive). For the same molecule, the GI50 (SR) was > 100 µM (inactive), the GI50 (SW-620) was > 100 µM (inactive) and the GI50 (TK-10) was > 100 µM (inactive). The GI50 (U-251) was > 100 µM (inactive), the GI50 (UACC-257) was > 100 µM (inactive) and the GI50 (UACC-62) was > 100 µM (inactive). For the same molecule, the GI50 (UO-31) was > 100 µM (inactive).

For `COc1cc2c(cc1OC)c1c(OC)c(OC)cc3c1c1c2sc(=S)n1CC3`, the GI50 (786-0) was 18.1 µM (inactive), the GI50 (A498) was > 100 µM (inactive) and the GI50 (A549) was > 100 µM (inactive). For the same molecule, the GI50 (ACHN) was > 100 µM (inactive), the GI50 (CAKI-1) was > 100 µM (inactive) and the GI50 (CCRF-CEM) was 24.5 µM (inactive). The GI50 (COLO 205) was > 100 µM (inactive), the GI50 (DLD-1) was 43 µM (inactive) and the GI50 (DMS-114) was 29.3 µM (inactive). The GI50 (DMS-273) was 53.1 µM (inactive), the GI50 (EKVX) was > 100 µM (inactive) and the GI50 (HCC 2998) was 53.1 µM (inactive). The GI50 (HCT-116) was 97.9 µM (inactive), the GI50 (HCT-15) was 42.3 µM and the GI50 (HL-60) was 26.9 µM (inactive). For the same molecule, the GI50 (HOP-18) was > 100 µM (inactive), the GI50 (HOP-92) was > 100 µM (inactive) and the GI50 (HT-29) was 50.2 µM (inactive). The GI50 (IGROV-1) was > 100 µM (inactive), the GI50 (K562) was 21.6 µM (inactive) and the GI50 (KM-20L2) was > 100 µM (inactive). For the same molecule, the GI50 (KM12) was 55.8 µM (inactive), the GI50 (LOX IMVI) was 31.5 µM (inactive) and the GI50 (LXFL 529) was 35.1 µM (inactive). The GI50 (M14) was 18.4 µM (inactive), the GI50 (M19-MEL) was 34.4 µM (inactive) and the GI50 (MOLT-4) was 30.7 µM (inactive). For the same molecule, the GI50 (Malme-3M) was 86.3 µM (inactive), the GI50 (NCI-H226) was > 100 µM (inactive) and the GI50 (NCI-H23) was 44.4 µM (inactive). For the same molecule, the GI50 (NCI-H460) was 42.7 µM (inactive), the GI50 (NCI-H522) was 17.4 µM (inactive) and the GI50 (OVCAR-3) was 55.5 µM (inactive). For the same molecule, the GI50 (OVCAR-4) was 55 µM (inactive), the GI50 (OVCAR-5) was > 100 µM (inactive) and the GI50 (OVCAR-8) was 41.8 µM (inactive). The GI50 (RPMI-8226) was 32.1 µM (inactive), the GI50 (RXF 393) was 89.1 µM (inactive) and the GI50 (SF-268) was 28.7 µM (inactive). The GI50 (SF-295) was > 100 µM (inactive), the GI50 (SF-539) was 48.3 µM (inactive) and the GI50 (SK-MEL-28) was 46.9 µM (inactive). For the same molecule, the GI50 (SK-MEL-2) was > 100 µM (inactive), the GI50 (SK-MEL-5) was 41.5 µM (inactive) and the GI50 (SK-OV-3) was > 100 µM (inactive). For the same molecule, the GI50 (SN12C) was 64.6 µM (inactive), the GI50 (SNB-19) was 67.1 µM (inactive) and the GI50 (SNB-75) was 74.6 µM (inactive). The GI50 (SNB-78) was > 100 µM (inactive), the GI50 (SW-620) was 51.1 µM (inactive) and the GI50 (TK-10) was > 100 µM (inactive). The GI50 (U-251) was 66.5 µM (inactive), the GI50 (UACC-257) was > 100 µM (inactive) and the GI50 (UACC-62) was 24.4 µM (inactive). For the same molecule, the GI50 (UO-31) was > 100 µM (inactive).

`CN1CCC2(CC1)SC[C@H]1C(=O)N(c3ccc(Cl)cc3)C(=O)N12` was tested, and the GI50 (786-0) was > 100 µM (inactive), the GI50 (A498) was 24.2 µM (inactive) and the GI50 (A549) was > 100 µM (inactive). For the same molecule, the GI50 (ACHN) was 25.9 µM (inactive), the GI50 (BT-549) was > 100 µM (inactive) and the GI50 (CAKI-1) was > 100 µM (inactive). The GI50 (CCRF-CEM) was > 100 µM (inactive), the GI50 (COLO 205) was > 100 µM (inactive) and the GI50 (DU-145) was > 100 µM (inactive). For the same molecule, the GI50 (EKVX) was > 100 µM (inactive), the GI50 (HCC 2998) was > 100 µM (inactive) and the GI50 (HCT-116) was > 100 µM (inactive). For the same molecule, the GI50 (HCT-15) was 50.1 µM, the GI50 (HL-60) was > 100 µM (inactive) and the GI50 (HOP-62) was > 100 µM (inactive). The GI50 (HOP-92) was > 100 µM (inactive), the GI50 (HT-29) was > 100 µM (inactive) and the GI50 (Hs-578T) was > 100 µM (inactive). For the same molecule, the GI50 (IGROV-1) was > 100 µM (inactive), the GI50 (K562) was 45.2 µM (inactive) and the GI50 (KM12) was > 100 µM (inactive). For the same molecule, the GI50 (LOX IMVI) was > 100 µM (inactive), the GI50 (M14) was > 100 µM (inactive) and the GI50 (MCF7) was > 100 µM (inactive). The GI50 (MDA-MB-231) was > 100 µM (inactive), the GI50 (MDA-MB-435) was 43.7 µM (inactive) and the GI50 (MDA-N) was > 100 µM (inactive). For the same molecule, the GI50 (MOLT-4) was > 100 µM (inactive), the GI50 (Malme-3M) was > 100 µM (inactive) and the GI50 (NCI-H226) was > 100 µM (inactive). The GI50 (NCI-H23) was > 100 µM (inactive), the GI50 (NCI-H460) was > 100 µM (inactive) and the GI50 (NCI-H522) was > 100 µM (inactive). For the same molecule, the GI50 (NCI/ADR-RES) was > 100 µM (inactive), the GI50 (OVCAR-3) was > 100 µM (inactive) and the GI50 (OVCAR-4) was > 100 µM (inactive). For the same molecule, the GI50 (OVCAR-5) was > 100 µM (inactive), the GI50 (OVCAR-8) was > 100 µM (inactive) and the GI50 (PC-3) was > 100 µM (inactive). The GI50 (RPMI-8226) was > 100 µM (inactive), the GI50 (RXF 393) was > 100 µM (inactive) and the GI50 (SF-268) was > 100 µM (inactive). The GI50 (SF-295) was > 100 µM (inactive), the GI50 (SF-539) was > 100 µM (inactive) and the GI50 (SK-MEL-28) was > 100 µM (inactive). For the same molecule, the GI50 (SK-MEL-2) was > 100 µM (inactive), the GI50 (SK-MEL-5) was > 100 µM (inactive) and the GI50 (SK-OV-3) was > 100 µM (inactive). The GI50 (SN12C) was > 100 µM (inactive), the GI50 (SNB-19) was > 100 µM (inactive) and the GI50 (SNB-75) was > 100 µM (inactive). The GI50 (SR) was > 100 µM (inactive), the GI50 (SW-620) was > 100 µM (inactive) and the GI50 (T47D) was > 100 µM (inactive). For the same molecule, the GI50 (TK-10) was > 100 µM (inactive), the GI50 (U-251) was > 100 µM (inactive) and the GI50 (UACC-257) was > 100 µM (inactive). For the same molecule, the GI50 (UACC-62) was > 100 µM (inactive) and the GI50 (UO-31) was > 100 µM (inactive).
